Legend:
PI3K-γ (p110γ) = molecular target: T1, PI3K-γ (p110γ) (Homo sapiens, UniProt P48736); assay: PI3K isoforms biochemical assay (HTRF), PI3K-γ; settings: read-out: PI3Kγ IC50
T1 construct: purchased Invitrogen PV4787
Protocol: (§1) PI3Kα (p110α/p85α), PI3K-δ (p110δ/p85α), and PI3K-γ (p110γ) were purchased from Invitrogen (PV4789, PV 5274, and PV4787, respectively). PI3K-β (p110β/p85α) was obtained from Millipore (#14-603). The kinase activity was measured with the commercial PI3-kinase (human) HTRF™ assay available from Millipore (#33-017), following the manufacturer recommendations. The final enzyme concentration in the assay were 100 pM for PI3K-α and PI3K-δ, 500 pM for PI3K-β, and 4 nM for PI3K-γ. […] The enzyme was preincubated with the inhibitor and with 10 μM of PIP2 for 5 min. The enzymatic reaction was started by addition of ATP at 50 times the Km. The incubation was kept at 37 °C for 60 min. Stop solution and detection mix were added sequentially to the wells and plates were incubated 3 h in the dark at 25 °C. HTRF counts were measured in an EnVision reader (Perkin Elmer) using the recommended settings. Values were normalized against the control activity included for the enzyme (100% PI3 kinase activity, without compound). These values were plotted against the inhibitor concentration and were fit to a sigmoid dose-response curve by using Activity base software from IDBS.

PI3K-β (p110β/p85α) = molecular target: T2, PI3K-β (p110β/p85α) (Homo sapiens, UniProt P42338); assay: PI3K isoforms biochemical assay (HTRF), PI3K-β; settings: read-out: PI3Kβ IC50
T2 construct: purchased Millipore #14-603
Protocol: as §1

PI3K-δ (p110δ/p85α) = molecular target: T3, PI3K-δ (p110δ/p85α) (Homo sapiens, UniProt O00329); assay: PI3K isoforms biochemical assay (HTRF), PI3K-δ; settings: read-out: PI3Kδ IC50
T3 construct: purchased Invitrogen PV 5274
Protocol: as §1

[1] = system: TRF1 mRNA in CHA 9-3 lung cancer cells; assay: TRF1 mRNA by qPCR; type: cell-based, mouse; settings: 10 μM, 24 h

T3 sequence (O00329 whole entry, canonical isoform): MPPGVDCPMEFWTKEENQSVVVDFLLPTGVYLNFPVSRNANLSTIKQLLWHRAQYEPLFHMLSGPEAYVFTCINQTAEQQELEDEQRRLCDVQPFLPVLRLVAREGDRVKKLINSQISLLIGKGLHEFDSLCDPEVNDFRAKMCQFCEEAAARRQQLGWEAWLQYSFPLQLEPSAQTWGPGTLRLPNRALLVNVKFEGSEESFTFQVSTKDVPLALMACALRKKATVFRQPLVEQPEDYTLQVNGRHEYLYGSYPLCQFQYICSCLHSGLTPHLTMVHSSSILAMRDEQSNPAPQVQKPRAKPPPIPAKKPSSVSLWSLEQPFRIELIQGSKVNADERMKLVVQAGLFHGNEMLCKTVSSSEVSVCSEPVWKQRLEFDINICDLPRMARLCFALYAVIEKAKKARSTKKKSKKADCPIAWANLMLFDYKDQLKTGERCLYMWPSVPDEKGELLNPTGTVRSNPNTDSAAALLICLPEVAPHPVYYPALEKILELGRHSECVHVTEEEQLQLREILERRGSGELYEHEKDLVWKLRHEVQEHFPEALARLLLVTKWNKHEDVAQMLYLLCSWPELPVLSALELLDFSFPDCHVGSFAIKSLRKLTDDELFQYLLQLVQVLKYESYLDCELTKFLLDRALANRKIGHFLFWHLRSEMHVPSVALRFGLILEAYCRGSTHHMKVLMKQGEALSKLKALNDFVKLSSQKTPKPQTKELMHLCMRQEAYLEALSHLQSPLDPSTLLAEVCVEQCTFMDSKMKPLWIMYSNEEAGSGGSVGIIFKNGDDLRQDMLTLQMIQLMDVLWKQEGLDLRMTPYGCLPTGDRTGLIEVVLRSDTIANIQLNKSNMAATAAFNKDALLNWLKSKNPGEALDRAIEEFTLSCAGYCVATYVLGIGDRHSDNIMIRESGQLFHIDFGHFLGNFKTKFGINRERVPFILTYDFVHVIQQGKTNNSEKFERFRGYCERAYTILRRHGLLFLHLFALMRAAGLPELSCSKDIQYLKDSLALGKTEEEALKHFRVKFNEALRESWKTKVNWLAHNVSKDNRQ
T3 sequence (P27986 whole entry partner, canonical isoform): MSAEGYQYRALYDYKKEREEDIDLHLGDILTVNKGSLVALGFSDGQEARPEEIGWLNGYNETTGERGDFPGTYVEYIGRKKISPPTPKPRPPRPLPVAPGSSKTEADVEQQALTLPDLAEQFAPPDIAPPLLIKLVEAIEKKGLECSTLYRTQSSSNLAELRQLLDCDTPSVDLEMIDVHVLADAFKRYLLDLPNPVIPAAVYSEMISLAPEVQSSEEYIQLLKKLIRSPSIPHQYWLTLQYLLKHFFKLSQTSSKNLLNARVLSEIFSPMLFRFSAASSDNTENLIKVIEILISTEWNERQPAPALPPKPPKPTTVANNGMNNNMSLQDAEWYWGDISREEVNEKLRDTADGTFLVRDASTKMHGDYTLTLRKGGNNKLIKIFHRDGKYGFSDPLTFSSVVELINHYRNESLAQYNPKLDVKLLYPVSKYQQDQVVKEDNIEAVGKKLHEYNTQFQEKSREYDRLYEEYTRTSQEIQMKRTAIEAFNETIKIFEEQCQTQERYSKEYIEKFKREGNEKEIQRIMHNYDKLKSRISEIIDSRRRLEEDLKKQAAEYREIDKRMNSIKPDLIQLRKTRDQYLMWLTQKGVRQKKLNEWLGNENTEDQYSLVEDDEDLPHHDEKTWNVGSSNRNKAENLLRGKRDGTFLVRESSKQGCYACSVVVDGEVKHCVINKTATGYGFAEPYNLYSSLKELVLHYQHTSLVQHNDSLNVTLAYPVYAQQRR
T1 sequence (P48736 whole entry, canonical isoform): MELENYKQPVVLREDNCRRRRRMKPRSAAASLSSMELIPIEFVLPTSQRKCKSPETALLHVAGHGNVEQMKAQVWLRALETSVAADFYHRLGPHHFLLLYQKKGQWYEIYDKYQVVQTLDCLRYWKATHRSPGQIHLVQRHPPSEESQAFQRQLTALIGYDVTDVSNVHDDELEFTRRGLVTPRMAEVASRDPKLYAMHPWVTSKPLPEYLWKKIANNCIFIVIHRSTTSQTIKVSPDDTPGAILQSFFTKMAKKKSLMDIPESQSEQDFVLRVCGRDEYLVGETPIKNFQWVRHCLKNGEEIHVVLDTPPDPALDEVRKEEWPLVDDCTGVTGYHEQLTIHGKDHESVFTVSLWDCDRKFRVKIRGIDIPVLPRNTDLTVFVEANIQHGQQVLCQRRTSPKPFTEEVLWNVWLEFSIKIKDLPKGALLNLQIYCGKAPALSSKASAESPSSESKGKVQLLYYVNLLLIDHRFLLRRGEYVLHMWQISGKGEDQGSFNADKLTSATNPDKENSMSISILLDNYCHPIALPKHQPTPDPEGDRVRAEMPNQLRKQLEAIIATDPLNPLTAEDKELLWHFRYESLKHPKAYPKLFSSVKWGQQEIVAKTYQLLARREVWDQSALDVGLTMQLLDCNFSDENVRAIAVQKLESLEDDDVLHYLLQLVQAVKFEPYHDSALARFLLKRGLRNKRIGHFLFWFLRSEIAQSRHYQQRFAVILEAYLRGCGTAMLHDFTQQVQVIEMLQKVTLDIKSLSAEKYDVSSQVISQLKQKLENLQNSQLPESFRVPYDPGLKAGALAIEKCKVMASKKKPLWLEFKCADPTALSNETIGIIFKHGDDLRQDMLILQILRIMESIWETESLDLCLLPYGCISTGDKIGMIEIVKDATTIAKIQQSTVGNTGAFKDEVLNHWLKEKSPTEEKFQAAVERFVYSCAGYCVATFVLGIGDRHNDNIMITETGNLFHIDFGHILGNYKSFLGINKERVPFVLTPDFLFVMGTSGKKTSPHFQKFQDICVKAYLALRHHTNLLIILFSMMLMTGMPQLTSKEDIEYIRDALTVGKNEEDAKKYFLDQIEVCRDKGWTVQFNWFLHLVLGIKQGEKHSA
T2 sequence (P42338 whole entry, canonical isoform): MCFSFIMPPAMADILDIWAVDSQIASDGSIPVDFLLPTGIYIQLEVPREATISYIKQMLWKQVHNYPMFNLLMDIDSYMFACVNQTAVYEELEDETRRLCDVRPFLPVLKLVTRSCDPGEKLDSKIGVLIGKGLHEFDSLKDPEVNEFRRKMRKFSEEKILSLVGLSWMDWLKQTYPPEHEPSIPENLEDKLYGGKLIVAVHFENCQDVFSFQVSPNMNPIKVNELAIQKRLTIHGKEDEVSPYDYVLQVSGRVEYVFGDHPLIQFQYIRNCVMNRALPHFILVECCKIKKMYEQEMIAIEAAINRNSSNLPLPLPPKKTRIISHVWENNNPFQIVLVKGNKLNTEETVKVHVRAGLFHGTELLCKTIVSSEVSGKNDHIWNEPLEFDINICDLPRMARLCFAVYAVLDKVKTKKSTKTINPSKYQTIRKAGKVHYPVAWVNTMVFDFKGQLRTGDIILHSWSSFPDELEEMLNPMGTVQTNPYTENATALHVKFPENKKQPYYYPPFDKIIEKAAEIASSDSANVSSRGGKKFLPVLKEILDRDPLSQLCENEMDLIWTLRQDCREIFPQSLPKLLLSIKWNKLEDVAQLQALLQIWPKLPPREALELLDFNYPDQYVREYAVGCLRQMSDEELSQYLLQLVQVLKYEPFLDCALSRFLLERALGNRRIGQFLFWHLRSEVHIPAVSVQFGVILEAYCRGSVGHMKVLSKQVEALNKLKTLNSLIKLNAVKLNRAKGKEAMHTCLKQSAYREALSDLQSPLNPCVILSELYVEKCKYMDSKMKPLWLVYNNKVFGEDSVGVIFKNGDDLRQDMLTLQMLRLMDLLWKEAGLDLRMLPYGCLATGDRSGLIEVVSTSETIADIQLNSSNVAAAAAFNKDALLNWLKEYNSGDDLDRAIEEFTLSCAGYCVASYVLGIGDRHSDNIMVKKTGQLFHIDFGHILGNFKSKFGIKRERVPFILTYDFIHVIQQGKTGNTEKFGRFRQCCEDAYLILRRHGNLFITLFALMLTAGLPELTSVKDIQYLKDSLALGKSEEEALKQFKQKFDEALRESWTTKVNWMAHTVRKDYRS
T2 sequence (P27986 whole entry partner, canonical isoform): as the sequence (P27986 whole entry partner, canonical isoform) above

CS(=O)(=O)N1CCN(Cc2cc3c(N4CCOCC4)nc(-c4cnc(N)nc4)cn3n2)CC1 [ETP-47037]
IC50 (PI3K-γ (p110γ)): 49.1 nM
IC50 (PI3K-β (p110β/p85α)): 49.2 nM
IC50 (PI3K-δ (p110δ/p85α)): 7.13 nM
TRF1 mRNA levels [1]: None of the inhibitors significantly affected
